The values that follow come from US9775890B2, “Factor Xa inhibitor used with liver-derived progenitor cells” (UNIVERSITÉ CATHOLIQUE DE LOUVAIN, priority 2012, dated 2017).

Counter-ions that a name gives are not always drawn. Like-named read-outs stand apart in the source and are kept apart here.

Data set [1] concerns cells with PCA. Description: Analogous thromboelastometry experiments with different direct factor Xa inhibitors plus direct thrombin inhibitor. The conditions noted are these: present tense. It counts as cell-based. Here is the method: (§1) Measurements were performed on a ROTEM® delta analyser (Pentapharm, Munich, Germany). ROTEM® assesses the kinetics and quality of clot formation and clot lysis in real-time. The clotting time (CT) is defined as the period of time from the start of the analysis until the start of clot formation, normally until the 2 mm amplitude is reached. The clot formation time is defined as the period until the 20 mm amplitude is reached. The alpha angle is defined as the angle between the centre line and a tangent to the curve through the 2 mm amplitude point, which is the end of the CT. The maximum amplitude of the curve is defined as the maximum clot firmness. The maximum of lysis represents the maximum fibrinolysis detected during the measurement. We focused on CT.
(§2) Briefly, after a short rest period, 300 μl of whole blood was pipetted into a cup pre-warmed at 37° C. Suspended cells were subsequently added to whole blood (5×10exp5 cells if no specification). Twenty μl of trigger reagent containing tissue factor (TF) (Innovin, Siemens, Marburg, Germany. Final dilution 1:17000/0.35 pM) diluted in Owren buffer (Siemens, Marburg, Germany) was then added to the cell-blood mixture followed by the necessary addition of 20 μl of 0.2 M CaCl2. After calcium addition, measurements started automatically. The procoagulant activity (PCA) of cells was also determined without addition of Innovin.
For modulation of PCA assays, cells were suspended in albumin 5% with or without non-fractionated heparin (Heparin Leo®, Leo). […] Dose extrapolation was based on circulating blood volume according to weight (70 ml/kg).

Data set [2] deals with hepatocytes. The experiment in a line: Thromboelastometry (ROTEM): modulation of PCA of hepatocytes in whole blood. It counts as cell-based, human. The protocol: as §1
as §2, with “Innovin. […]” for “Innovin.”

Data set [3] has as its system hALPCs. Description: Thromboelastometry (ROTEM) clotting time: modulation of procoagulant activity (PCA) of hALPCs in whole blood. It is filed as cell-based, human. Particulars: for Control of hALPCs PCA by thrombin inhibitor, increased dose (2× or 5×): FIGS. 14 and 15, dose 2× or 5×; for Clotting time (CT) of whole blood with hALPCs in presence of anticoagulant drug: ROTEM, 300 μl citrated whole blood, 5×10exp5 hALPCs, added TF, heparin 10 U/mL in cell suspension, hirudin 5.7 μg/ml. The protocol:
as §1
as §2, with “Innovin. To ascertain the role of TF in this coagulation model, cells were pre-incubated at room temperature for 10 minutes with either 0.2 mg/mL mAb anti-human TF IgG1 (American Diagnostica) or 0.2 mg/mL mAb mouse IgG1 (clone11711.11; RnD Systems, Abingdon, United Kingdom) before extensive washing in albumin 5% and thromboelastometry assay.” for “Innovin.”
For modulation of PCA assays, cells were suspended in albumin 5% with or without non-fractionated heparin (Heparin Leo®, Leo). The following were then added to blood or plasma: rivaroxaban (Xarelto®, Bayer Schering) at a concentration of 1 μg/ml following published data (Samama et al. (2010), Thromb Haemost, 103(4):815-825), hirudin (Refludan®, Celgene Europe Limited) at a concentration of 5.7 μg/ml (clinical dose extrapolation 0.4 mg/kg), bivalirudin (Angiox®, The Medicines Company) at a concentration of 10.7 μg/ml (clinical dose extrapolation 0.75 mg/kg). Dose extrapolation was based on circulating blood volume according to weight (70 ml/kg).

Data set [4] concerns citrated whole blood. The experiment in a line: Thromboelastometry (ROTEM) of control blood in absence of cells with anticoagulant drug. Also noted: species or system human. Particulars: no cells. Here is the method:
as §1
as §2, with “Innovin. […]” for “Innovin.”

For the compound `CO[C@H]1C[C@@H](C(=O)Nc2ccc(-n3ccccc3=O)cc2F)N(C(=O)Nc2ccc(Cl)cc2)C1` [eribaxaban], the “Modulation of PCA of cells by concomitant use of the direct factor Xa inhibitor with a direct thrombin inhibitor (hirudin or bivalirudin)” value in data set [1] was “able to modulate PCA”.

For antistasin, the “Modulation of PCA of cells by concomitant use of the direct factor Xa inhibitor with a direct thrombin inhibitor (hirudin or bivalirudin)” value in data set [1] was “able to modulate PCA”.

Take `N=C(N)N1CCc2ccc(OCC3(C(=O)O)CCN(c4ccncc4)CC3)cc2C1` [JTV-803]: the “Modulation of PCA of cells by concomitant use of the direct factor Xa inhibitor with a direct thrombin inhibitor (hirudin or bivalirudin)” value in data set [1] is reported as “able to modulate PCA”.

With `CC(=N)N1CCC(Oc2ccc(N(Cc3ccc4ccc(C(=N)N)cc4c3)S(=O)(=O)CC(=O)O)cc2)CC1` [YM-60828], the “Modulation of PCA of cells by concomitant use of the direct factor Xa inhibitor with a direct thrombin inhibitor (hirudin or bivalirudin)” value in data set [1] is on record as “able to modulate PCA”.

With `CN1CCC(N2CCN(C(=O)[C@H](NC(=O)c3ccc4cc[nH]c4c3)c3ccccc3)CC2)CC1` [LY517717], the “Modulation of PCA of cells by concomitant use of the direct factor Xa inhibitor with a direct thrombin inhibitor (hirudin or bivalirudin)” value in data set [1] is on record as “able to modulate PCA”.

Regarding `CN(C)Cc1nccn1-c1ccc(NC(=O)c2cc(C(F)(F)F)nn2-c2ccc3onc(N)c3c2)c(F)c1` [razaxaban], the “Modulation of PCA of cells by concomitant use of the direct factor Xa inhibitor with a direct thrombin inhibitor (hirudin or bivalirudin)” value in data set [1] was “able to modulate PCA”.

With `CC(=N)N1CCC(c2ccc(NC(=O)CN(Cc3cccc(OCC(=O)O)c3)c3cccc(C(=N)N)c3)cc2)CC1` [KFA-144], the “Modulation of PCA of cells by concomitant use of the direct factor Xa inhibitor with a direct thrombin inhibitor (hirudin or bivalirudin)” value in data set [1] is listed as “able to modulate PCA”.

As for `O=C([C@H](O)CS(=O)(=O)c1ccc2cc(Cl)ccc2c1)N1CCC(N2CCCNC2=O)CC1` [letaxaban], the “Modulation of PCA of cells by concomitant use of the direct factor Xa inhibitor with a direct thrombin inhibitor (hirudin or bivalirudin)” value in data set [1] is given as “able to modulate PCA”.

In the case of hirudin, in data set [2], the “Control of hepatocytes PCA (in words)” value is on record as “controlled”. In data set [3] (ROTEM whole blood), the “Control of hALPCs PCA by thrombin inhibitor, increased dose (2× or 5×)” value is “only a partial control”. Besides, in data set [3] (bivalirudin 10.7 μg/ml), the “Clotting time (CT) of whole blood with hALPCs in presence of anticoagulant drug” value (“Clotting time (CT) of whole blood” for short) came to 256.3 ± 11.8 s. For the same compound, in data set [4] (thromboelastometry stopped after 1800 sec), the “Coagulation of blood in absence of cells (in words)” value is “no measurable coagulation was observed”.

Consider `C[C@@H](C(=O)N1CCOCC1)N1CC[C@H](NS(=O)(=O)/C=C/c2ccc(Cl)s2)C1=O` [GW813893], for which the “Modulation of PCA of cells by concomitant use of the direct factor Xa inhibitor with a direct thrombin inhibitor (hirudin or bivalirudin)” value in data set [1] was “able to modulate PCA”.

As for `O=C(NC[C@H]1CN(c2ccc(N3CCOCC3=O)cc2)C(=O)O1)c1ccc(Cl)s1` [rivaroxaban, (S)-5-chloro-N-{[2-oxo-3-[4-(3-oxomorpholin-4-yl)phenyl]oxazolidin-5-yl]methyl}thiophene-2-carboxamide], the “Modulation of hALPCs PCA (in words)” value in data set [3] (ROTEM whole blood, rivaroxaban 1 μg/ml, bivalirudin 10.7 μg/ml, heparin 10 U/mL) is given as “ineffective”.

For the compound `COc1ccc(C(=O)Nc2cccc(O)c2NC(=O)c2ccc(N3CCCN(C)CC3)cc2)cc1` [darexaban], in data set [1], the “Modulation of PCA of cells by concomitant use of the direct factor Xa inhibitor with a direct thrombin inhibitor (hirudin or bivalirudin)” value is recorded as “able to modulate PCA”.

bivalirudin: in data set [2] (ROTEM whole blood, FIG. 6D), the “Control of hepatocytes PCA (in words)” value is on record as “controlled”. Moreover, the “Control of hALPCs PCA by thrombin inhibitor, increased dose (2× or 5×)” value in data set [3] (ROTEM whole blood) is on record as “only a partial control”. The “Clotting time (CT) of whole blood” value in data set [3] (bivalirudin 10.7 μg/ml) was 380.8 ± 114.7 s. Moreover, the “CT of control blood (in absence of cells)” value in data set [4] (bivalirudin 10.7 μg/ml, unit not printed at the place (other CT in sec)) is given as 1075.0±107.2.

In the case of `O=C1CN(S(=O)(=O)/C=C/c2ccc(Cl)s2)CCN1Cc1cc2cnccc2[nH]1` [RPR-209685], the “Modulation of PCA of cells by concomitant use of the direct factor Xa inhibitor with a direct thrombin inhibitor (hirudin or bivalirudin)” value in data set [1] was “able to modulate PCA”.

In the case of `COc1ccc(NC(=O)c2ccc(C(=N)N(C)C)cc2)c(C(=O)Nc2ccc(Cl)cn2)c1` [betrixaban, N-(5-chloropyridin-2-yl)-2-([4-(N,N-dimethylcarbamimidoyl)benzoyl]amino)-5-methoxybenzamide], the “Modulation of PCA of cells by concomitant use of the direct factor Xa inhibitor with a direct thrombin inhibitor (hirudin or bivalirudin)” value in data set [1] is reported as “able to modulate PCA”.

Take `COc1ccc(-n2nc(C(N)=O)c3c2C(=O)N(c2ccc(N4CCCCC4=O)cc2)CC3)cc1` [apixaban, 1-(4-methoxyphenyl)-7-oxo-6-[4-(2-oxopiperidin-1-yl)phenyl]-4,5-dihydropyrazolo[5,4-c]pyridine-3-carboxamide]: the “Modulation of PCA of cells by concomitant use of the direct factor Xa inhibitor with a direct thrombin inhibitor (hirudin or bivalirudin)” value in data set [1] was “able to modulate PCA”.

Regarding `CC(=N)N1CC[C@H](Oc2ccc([C@H](Cc3ccc4ccc(C(=N)N)cc4c3)C(=O)O)cc2)C1` [DX9065a], the “Modulation of PCA of cells by concomitant use of the direct factor Xa inhibitor with a direct thrombin inhibitor (hirudin or bivalirudin)” value in data set [1] is given as “able to modulate PCA”.

For the compound `COc1ccccc1N1CCN(C(=O)CNC(=O)C(Nc2cccc(C(=N)N)c2)c2ccccc2O[C@@H]2O[C@H](CO)[C@@H](O)[C@H](O)[C@H]2O)CC1` (stereo partly shown) [MCM-09], the “Modulation of PCA of cells by concomitant use of the direct factor Xa inhibitor with a direct thrombin inhibitor (hirudin or bivalirudin)” value in data set [1] is “able to modulate PCA”.

Consider `CO[C@H]1O[C@H](COS(=O)(=O)O)[C@@H](O[C@@H]2O[C@@H](C(=O)O)[C@@H](O[C@H]3O[C@H](COS(=O)(=O)O)[C@@H](O[C@@H]4O[C@H](C(=O)O)[C@@H](O[C@H]5O[C@H](COS(=O)(=O)O)[C@@H](O)[C@H](O)[C@H]5NS(=O)(=O)O)[C@H](O)[C@H]4O)[C@H](OS(=O)(=O)O)[C@H]3NS(=O)(=O)O)[C@H](O)[C@H]2OS(=O)(=O)O)[C@H](O)[C@H]1NS(=O)(=O)O` [fondaparinux, 2-deoxy-6-O-sulfo-2-(sulfoamino)-α-D-glucopyranosyl-(1→4)-O-β-D-glucopyranuronosyl-(1→4)-O-2-deoxy-3,6-di-O-sulfo-2-(sulfoamino)-α-D-glucopyranosyl-(1→4)-O-2-O-sulfo-α-L-idopyranouronosyl-(1→4)-O-methyl-2-deoxy-6-O-sulfo-2-(sulfoamino)-α-D-glucopyranoside, decasodium salt], for which, in data set [3] (bivalirudin 10.7 μg/ml), the “Clotting time (CT) of whole blood” value is 209.7 ± 149.7 s.
